Data set [1] relates to cultured human endothelial cells. As to conditions: acetate at 5 mM; cited from earlier work.
The subject of data set [2] is hybridoma cell line VPM 8. Description: VPM 8 hybridoma culture: CCT, harvest antibody titer, specific productivity. Here is the method: (§1) Where not specified, antibody productivity or titer was determined by protein A-HPLC.
A dose response study for addition of sodium acetate was carried out for hybridoma cell line VPM 8 (ECACC No. 93113024, European Collection of cell cultures, supra) essentially as described in exp. 3, except that VPM 8 was grown in commercial, protein-free medium CD-Hybridoma (Invitrogen/U.K.) and in that no MSX was added, since not being a GS cell line. VPM 8 is a mouse hybridoma that was generated by conventional means of cell fusion with non-secreting myeloma cells and secretes a murine IgG1 antibody.
The experiment has been carried out essentially as described in exp. 5, except that acetate was substituted with n-butyrate in the amounts stated in the figures.

The test system of data set [3] is GS-NS0 cell line 6A1(100)3. Description: GS-NS0 6A1 fed-batch culture (shake flask / airlift bioreactor): growth and antibody productivity by protein A-HPLC. As to conditions: for single cell productivity (qp): fed-batch shake flask. The method, then: as §1
The GS-NS0 cell line 6A1(100)3, 6A1 for short, secreting recombinant mouse/human chimeric IgG cB72.3 (Bebbington, 1992, supra) was used in all experimental settings under this section. Cell culture was either carried out in shake flask culture or in a fed-batch mode in a 101 standard airlift bioreactor, essentially as described (Bebbington, 1992). Feeds essentially comprised amino acids and carbohydrate as described above for high-density media and fermentation, respectively. Feed volume was at 4% of post-inocculation volume. Feed was initiated at a rate of 0.2 ml/Lh when viable cell density exceeded 14×10^5 cells/ml. Temperature was controlled at 36.5 degree centigrade; for airlift, air saturation was at 15%. pH was controlled at pH 7.00. Culture was inoculated at 2×10^5 viable cells/ml. Medium is serum- and essentially protein-free growth medium ProCH04-CDM (BioWhittaker) supplemented with […] methionine sulfoximine (MSX). Cells were pre-adapted to medium. […] Positively, it did prolong stationary phase upon fermentation.
Cumulative cell time (10^6 cell/h ml) was calculated by integration of the cell growth curve, essentially as described by Renard et al. (1988, Biotechnology Letters 10, 91-96).
Either sodium acetate or potassium acetate were added to shake flask culture during mid-exponential growth phase to the final concentrations stated in the respective sections of the table of FIG. 1. Cultures were counted daily by Trypan blue method and samples were taken for product analysis by means of protein A fractionation and HPLC analysis.
Duplicate cultures both for control and 10 mM sodium acetate supplemented culture were tested for viable cell concentration (determined by Trypan blue exclusion standard counting test). Feed was started at day 4. The acetate was not fed during growth phase as in FIG. 1 but was included in cell culture production medium right away to which the inocculum cells were added. […] The CCT remained essentially similar for all cultures.
Exp. 2 was conducted essentially as described above for exp. 1/FIG. 2, except that now 7.5 mM sodium acetate and a proprietary high-density culture medium was used, similar to the lipid supplemented high-density media described in EP435 911 A but distinct in employing less ethanolamine and no thioglycerole and keeping Tryptophan concentration constant at 19 mM by sensor-controlled automatic feeding. […] In contrast to exp. 1, the same maximum viable cell density could be achieved in the presence of actetate as compared to the control without acetate in the absence of any adverse effect on duration of stationary phase growth. Similarly, product concentration increased steadily over control and over time (FIG. 6).
In the permissible range, no increase in productivity could be seen at all, not even at the single cell level. The experiment was conducted essentially as described in exp. 1/FIG. 2, except that butyrate was added in the amounts shown instead of acetate. […] FIG. 9-11 show the effect of butyrate addition on CCT, antibody titer at harvest and single cell specific productivity (qp).

The subject of data set [4] is CHO cell culture. As to conditions: added to medium with 1 mM sodium butyrate; lithium salts 10 mM, LPS 1 μg/ml, sodium acetate 10 mM; cited from earlier work.
The mark [5] stands for this setting: CD-Hybridoma protein-free medium, Experiment 5.
Setting [6] is: 7.5 mM, high-density medium, Experiment 2.
Setting [7] is: added during mid-exponential growth phase.

A value given as a limit tells only on which side of the number the result lay.

Turning to `CCCC(=O)[O-].[Na+]` [Butyrate, sodium n-butyrate, reference compound], in data set [1], the “expression-enhancing effect on tPA production” value (from here on “expression-enhancing effect”) is reported as “outstanding effect”. In data set [2] (Experiment 6), the antibody titer entry is “not effective in increasing antibody titer” and the “toxicity for the cell line” value is “exceptional toxicity”. For the same compound, the “dose strongly toxic to the cells (rapid decrease of viable cell density)” value in data set [3] (Experiment 4) is listed as more than 1 mM. In data set [3] (butyrate added instead of acetate, Experiment 4), the antibody productivity result is given as “does not increase antibody productivity”.

In the case of `CCCCC(=O)O` [valerate], in data set [1], the “expression-enhancing effect” value is listed as “found to have such effect”.

Turning to `CC(=O)[O-].[Na+]` [sodium acetate], in data set [1], the “expression-enhancing effect” value is “did not differ significantly from the control”. Besides, the “protein yield enhancing effect in comparison to the butyrate control” value in data set [4] is reported as “literally no benefit over the control”. In data set [2] (setting [5]), the “productivity compared to non-treated control” value is listed as “enhanced productivity” and the “tolerance by the cells” value is given as “tolerates acetate surprisingly easily in the mM range”. Further, in data set [3] (setting [6]), the “cell growth parameters (cell growth rate and cumulative cell time)” value is recorded as “only small decreases”; the harvest antibody concentration entry was “large increase”. The “productivity in fed-batch shake flask culture” value in data set [3] (10 mM, added during mid-exponential growth phase, compared with potassium acetate at 10 mM or 15 mM) was “performed even better than potassium acetate”. Further, the effect on growth entry in data set [3] (Experiment 1, acetate supplementation) is “not to suppress growth”. For the same compound, in data set [3] (acetate-supplemented culture compared to control, Experiment 1), the “Increases in protein yield” value was “up to 98%”. In addition, the “growth suppression in terms of maximum cell density” value in data set [3] (fed-batch bioreactor, 10 mM included in production medium) is “No significant growth suppression”. The “single cell productivity (qp)” value in data set [3] (setting [7]) is given as “increased”. The protein yield in data set [3] (grown with 10 mM acetate (control 470 mg/L)) was found to be 768 mg/L. The “optimal concentration with regard to antibody yield and process robustness” value in data set [3] (proprietary high-density culture medium, Experiment 2) is 7.5 mM.

For “lipopolysaccharide [LPS, reference compound]”, the “protein yield enhancing effect in comparison to the butyrate control” value in data set [4] was “about 4 times”.

Take `CCC(=O)O` [proprionate]: in data set [1], the “expression-enhancing effect” value was “found to have such effect”.

Take `CC(=O)[O-].[K+]` [potassium acetate]: the “single cell productivity (qp)” value in data set [3] (setting [7]) was “increased”.

As for `[Cl-].[Li+]` [LiCl, reference compound], in data set [3] (feed supplemented to final approx. 1-10 mM, data not shown), the “modification of the effect of acetate addition” value is given as “did not prove to modify the effect of acetate addition in any way”.

(Values after patent publication US8338177B2, “Cell culture medium” (Lonza Biologics PLC, priority 2002, dated 2012).)
